Like-named read-outs stand apart in the source and are kept apart here.
Tests used:
[1] = system: IFN signaling pathway, HSC-4 squamous carcinoma cells; experiment: qRT-PCR of ISG expression in HSC-4 cells; format: cell-based; conditions: 10 μM, 12 hrs
Experimental: FIGS. 29A-29D Characterization of Compound #13 effects in cancer cells. […] Viability was examined using the Apo Tox-Glo assay system (Promega). Control, 0.3% DMSO. (FIG. 29B) Western blotting analysis of HeLa cells treated with Compound #13 (10 μM). […] (FIG. 29D) Activation of the IFN signaling pathway. HSC-4 squamous carcinoma cells were treated with Compound #13 at 10 μM (12 hrs). RNA samples were analyzed by qRT-PCR to monitor expression levels of ISGs.
Inhibition of ADAR1 mediated A-to-I editing of 3′UTR Alu dsRNAs activates the dsRNA sensing mechanism and induces IFNs (FIG. 2A). This activation of IFN signaling is required to overcome the tumor resistance to PD-1 based immunotherapy (FIG. 2B) (2), one of our motivations to identify ADAR1 inhibitors.

[2] = biological target: T1, ADAR1p110 (Homo sapiens, UniProt P55265); experiment: in vitro editing assay with recombinant ADAR1p110 and dsRNA or DNA:RNA substrates; format: biochemical
T1 construct: HAT (N); FLAG (alternative preparation, not on the same molecule as HAT) (N); made in house; host or cells: Sf9 insect cells, baculovirus
T1 sequence (P55265 1-931 isoform P55265-5): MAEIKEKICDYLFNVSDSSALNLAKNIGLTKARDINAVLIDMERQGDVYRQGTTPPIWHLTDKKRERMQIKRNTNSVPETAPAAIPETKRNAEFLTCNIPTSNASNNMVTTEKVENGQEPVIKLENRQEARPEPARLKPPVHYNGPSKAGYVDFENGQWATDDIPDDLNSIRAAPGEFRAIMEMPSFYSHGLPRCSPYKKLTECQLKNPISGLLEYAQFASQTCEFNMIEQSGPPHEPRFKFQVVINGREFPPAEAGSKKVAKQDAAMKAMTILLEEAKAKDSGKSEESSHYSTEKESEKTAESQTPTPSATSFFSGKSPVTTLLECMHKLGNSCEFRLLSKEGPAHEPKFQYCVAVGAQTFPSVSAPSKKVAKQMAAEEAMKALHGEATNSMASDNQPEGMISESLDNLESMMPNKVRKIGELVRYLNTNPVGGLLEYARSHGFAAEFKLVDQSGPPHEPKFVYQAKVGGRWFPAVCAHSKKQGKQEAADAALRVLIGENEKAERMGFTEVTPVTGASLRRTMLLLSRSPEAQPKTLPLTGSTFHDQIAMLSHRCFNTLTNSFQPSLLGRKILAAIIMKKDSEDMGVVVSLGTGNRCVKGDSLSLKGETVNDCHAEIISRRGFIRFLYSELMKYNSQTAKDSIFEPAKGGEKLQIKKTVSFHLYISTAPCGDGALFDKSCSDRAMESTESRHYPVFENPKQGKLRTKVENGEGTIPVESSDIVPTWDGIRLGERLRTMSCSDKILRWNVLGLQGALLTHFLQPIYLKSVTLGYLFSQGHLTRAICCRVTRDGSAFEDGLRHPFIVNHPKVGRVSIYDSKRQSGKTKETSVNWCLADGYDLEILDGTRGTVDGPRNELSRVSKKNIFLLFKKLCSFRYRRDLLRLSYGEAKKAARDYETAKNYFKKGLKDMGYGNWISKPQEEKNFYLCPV
Experimental: FIG. 26A-FIG. 26B show determination of IC50 by in vitro editing assay. In vitro editing assay using purified ADAR1p110 protein and two different substrates, matched (left) and mismatched (right) dsRNAs, was conducted in the presence of varying concentrations of compound #1 (FIG. 26A) or #13 (FIG. 26B) in order to estimate IC50 values for these compounds. In vitro editing was carried out using HAT-ADAR1p110 or HAT-ADAR2 recombinant protein (10 nM) and two different dsRNA substrates carrying a part of the CDK13 gene sequence (5 nM) at 37° C. for 2 hrs as described previously (12). Compounds were dissolved in 100% DMSO. The in vitro assay contained DMSO at final concentration of 16%.
The in vitro editing reaction mixture, containing 5 nM of telomere RNA:RNA duplex substrates and 75 nM of HAT-ADAR1p110-WT, FLAG-ADAR1p110-WT, or HA-ADAR1p110-EAA protein, was incubated at 37° C. for 2 h in in vitro editing buffer I (20 mM HEPES-KOH pH 7.5, 100 mM NaCl, 0.01% NP-40, 5% glycerol, 1 mM DTT). For editing of RNA:DNA hybrid substrates, in vitro editing buffer II (20 mM HEPES-KOH pH 7.5, 20 mM NaCl, 0.01% NP-40, 5% glycerol, 1 mM DTT) was used. Edited RNA or DNA strands were purified using Dynabeads MyOne Streptavidin C1 (Thermo Fisher Scientific). To remove opposite RNA or DNA strands, rNase H (NEB) or TURBO dNase (Thermo Fisher Scientific) was used, respectively. For sequencing of edited substrates, reverse transcription-PCR was carried out for RNA strands, while PCR was carried out for DNA strands. RT reactions were carried out using SuperScript III Reverse Transcriptase (Thermo Fisher Scientific), and PCR reactions were performed using Platinum Taq DNA polymerase (Thermo Fisher Scientific). PCR products were sequenced using a specific sequencing primer, and the ratio of A and G peaks in the chromatograms were analyzed by CodonCode Aligner (CodonCode Corporation).
The 54 compounds identified in the high-throughput screen were further tested in the in vitro editing assay described in Examples 1 and 2. The in vitro editing reaction mixture, containing 5 nM of telomere RNA:RNA duplex substrates and 75 nM of HAT-ADAR1p110-WT, FLAG-ADAR1p110-WT, or HA-ADAR1p110-EAA protein, was incubated at 37° C. for 2 h in in vitro editing buffer I (20 mM HEPES-KOH pH 7.5, 100 mM NaCl, 0.01% NP-40, 5% glycerol, 1 mM DTT) with 10 microM test compound. For editing of RNA:DNA hybrid substrates, in vitro editing buffer II (20 mM HEPES-KOH pH 7.5, 20 mM NaCl, 0.01% NP-40, 5% glycerol, 1 mM DTT) was used. Edited RNA or DNA strands were purified using Dynabeads MyOne Streptavidin C1 (Thermo Fisher Scientific). To remove opposite RNA or DNA strands, Rnase H (NEB) or TuRBO Dnase (Thermo Fisher Scientific) was used, respectively. For sequencing of edited substrates, reverse transcription-PCR was carried out for RNA strands, while PCR was carried out for DNA strands. RT reactions were carried out using SuperScript III Reverse Transcriptase (Thermo Fisher Scientific), and PCR reactions were performed using Platinum Taq DNA polymerase (Thermo Fisher Scientific). PCR products were sequenced using a specific sequencing primer, and the ratio of A and G peaks in the chromatograms were analyzed by CodonCode Aligner (CodonCode Corporation).

- IC50 ([2]; DNA:RNA mismatched hybrid substrate, read-out: IC50 estimated by in vitro editing assay, DNA:mmRNA): 30 to 100 µM
- IC50 ([2]; dsRNAs (matched, mismatched) and DNA:RNA hybrids, read-out: IC50 values for ADAR1p110): 7 to 40 µM
- IC50 ([2]; matched dsRNA substrate, read-out: IC50 estimated by in vitro editing assay, RNA:RNA): 3 µM
- IC50 ([2]; mismatched dsRNA substrate, adenosine position 2, read-out: IC50 estimated by in vitro editing assay, RNA:mmRNA, Position 2): 21 µM
- IC50 ([2]; mismatched dsRNA substrate, adenosine position 5, read-out: IC50 estimated by in vitro editing assay, RNA:mmRNA, Position 5): 8.2 µM
- IC50 ([2]; mismatched dsRNA substrate, adenosine position 6, read-out: IC50 estimated by in vitro editing assay, RNA:mmRNA, Position 6): 3.8 µM
Structure (SMILES): N#Cc1ccc(NC(=O)c2sc3ccccc3c2Cl)cc1 [Compound #13, 3-chloro-N-(4-cyanophenyl)-1-benzothiophene-2-carboxamide]
- expression of ISGs [1]: upregulated expression of known ISGs, MDA5, OAS1, ISG15, MX1, and MX2
- inhibition of editing of A:U matched dsRNA ([2]; matched dsRNA substrate, FIG. 25C, 10 microM test compound): preferentially inhibited matched adenosines
